Results reported in patent US9890185B2, “Urea derivatives useful as kinase inhibitors” (Respivert Limited, priority 2013, dated 2018).
pIC50: −log10 of the molar value.

Assays:
PBMCs [1] = assay: IFN gamma release in CD3/CD28 stimulated PBMC cells (assay c); assay type: cell-based; conditions: Homo sapiens, read-out: IC50 Values for Inhibition of Cytokine Release, PBMCs IFNγ
Procedure: (§1) PBMCs from healthy subjects are separated from whole blood using a density gradient (Lymphoprep, Axis-Shield Healthcare). Cells are added to a 96 well plate pre-coated with a mixture of CD3/CD28 monoclonal antibodies (0.3 μg/mL eBioscience and 3 μg/mL BD Pharmingen respectively). Compound at the desired concentration is then added to the wells and the plate left for 3 days under normal tissue culture conditions. Supernatants are harvested and IL-2 and IFN gamma release determined by Sandwich ELISA (Duo-set, R&D System). The IC50 is determined from the dose response curve.

Syk = Syk (Homo sapiens (Human), UniProt P43405); assay: Syk enzyme inhibition (FRET, Z-LYTE); assay type: biochemical
Summary of the method: (§2)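 Z-LYTE FRET read-out uses protease cleavage of unphosphorylated peptide, and the donor/acceptor ratio reflects phosphorylation. Kinase stocks (c-Src 3000, Syk 2000 ng/mL) were preincubated 2 hr RT with compound stocks of 0.004–4 μg/mL. Peptide and ATP solutions (c-Src 800 μM, Syk 60 μM) were then added for 1 hr. IC50 was taken from concentration-response.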

PBMCs [2] = assay: Cell mitosis assay in PBMCs (assay g); assay type: cell-based; conditions: Homo sapiens, PBMC, test compound 5 μg/mL
Summary of the method: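 Metaphase arrest with 0.1 μg/mL demecolcine during the final 2 hr of a 20 hr compound exposure, which follows 48 hr of 2% PHA stimulation of healthy-donor human PBMCs. Mitotic lymphocytes counted by flow cytometry (anti-phospho-histone 3 plus propidium iodide). Inhibition expressed relative to 0.5% DMSO.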

PBMCs [3] = assay: LPS-induced IL-8 release in PBMC cells (assay b); assay type: cell-based, human; conditions: Homo sapiens, PBMC; LPS-stimulated PBMCs; read-out: IC50 Values for Inhibition of Cytokine Release, PBMCs IL-8
Summary of the method: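 Cytokines (TNFα, IL-8) in supernatants were quantified by sandwich ELISA after a 24 h challenge with 1 ng/mL E. coli LPS at 37° C, 5% CO2. Healthy-donor PBMCs had been exposed to compound for 2 h beforehand. IC50 values were fitted from the concentration-response curves.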

GSK 3α = GSK 3α (Homo sapiens (Human), UniProt P49840); assay: GSK 3α enzyme inhibition (FRET, Z-LYTE, Method 2); assay type: biochemical; conditions: read-out: IC50 Values for Enzyme Inhibition, GSK3α
GSK 3α, sequence (P49840 whole entry): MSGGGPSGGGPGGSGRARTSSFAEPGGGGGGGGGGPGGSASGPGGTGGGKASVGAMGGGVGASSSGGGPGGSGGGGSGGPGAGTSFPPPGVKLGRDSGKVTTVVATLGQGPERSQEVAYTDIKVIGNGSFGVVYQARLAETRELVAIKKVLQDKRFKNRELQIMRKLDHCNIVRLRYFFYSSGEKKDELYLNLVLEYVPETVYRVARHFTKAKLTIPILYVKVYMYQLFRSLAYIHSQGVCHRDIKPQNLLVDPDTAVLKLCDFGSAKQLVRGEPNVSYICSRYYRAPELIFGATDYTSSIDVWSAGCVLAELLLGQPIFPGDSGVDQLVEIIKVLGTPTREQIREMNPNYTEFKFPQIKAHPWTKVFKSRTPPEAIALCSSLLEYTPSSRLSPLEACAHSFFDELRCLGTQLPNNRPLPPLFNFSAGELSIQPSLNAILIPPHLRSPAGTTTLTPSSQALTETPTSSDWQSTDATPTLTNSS
Summary of the method: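 Recombinant human GSK3α was preincubated with compound (stocks 4, 0.4, 0.04 or 0.004 μg/mL) at RT, 2 hr for Method 1 and 105 min for Method 2. FRET peptide (8 μM stock) and ATP (40 μM stock) were added for 1 hr, then protease development for 1 hr. IC50 was taken from concentration–response curves.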

PBMCs [4] = assay: IL-2 release in CD3/CD28 stimulated PBMC cells (assay c); assay type: cell-based; conditions: Homo sapiens, read-out: IC50 Values for Inhibition of Cytokine Release, PBMCs IL-2
Procedure: as §1

[5] = biological target: p38 MAPKα isoform (MAPK14) (Homo sapiens (Human), UniProt Q16539); assay: p38 MAPKα enzyme inhibition (FRET, Z-LYTE, Method 2); assay type: biochemical
p38 MAPKα isoform (MAPK14), sequence (Q16539 whole entry, canonical isoform): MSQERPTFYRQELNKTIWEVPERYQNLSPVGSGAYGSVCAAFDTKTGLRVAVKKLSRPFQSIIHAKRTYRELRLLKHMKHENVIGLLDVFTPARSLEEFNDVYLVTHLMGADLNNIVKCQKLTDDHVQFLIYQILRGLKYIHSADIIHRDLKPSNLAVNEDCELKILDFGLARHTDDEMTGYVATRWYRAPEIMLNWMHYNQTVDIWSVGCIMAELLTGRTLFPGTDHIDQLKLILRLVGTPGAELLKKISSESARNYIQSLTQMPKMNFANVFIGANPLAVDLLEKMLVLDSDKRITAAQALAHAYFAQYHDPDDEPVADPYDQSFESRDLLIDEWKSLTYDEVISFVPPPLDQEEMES
Summary of the method: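 Z-LYTE FRET: p38 MAPKα (80 ng/mL for Method 1, 200 ng/mL for Method 2, pre-dilution) preincubated 2 hr RT with compound (4–0.004 μg/mL solutions), activity read via MAPKAP-K2 phosphorylation after 1 hr RT and 1 hr protease development. Coumarin/fluorescein ratio gives phosphorylation; % inhibition versus uninhibited control, IC50 from concentration-response curve.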

c-Src = c-Src (Homo sapiens (Human), UniProt P12931); assay: c-Src enzyme inhibition (FRET, Z-LYTE); assay type: biochemical
c-Src, sequence (P12931 whole entry, looked up): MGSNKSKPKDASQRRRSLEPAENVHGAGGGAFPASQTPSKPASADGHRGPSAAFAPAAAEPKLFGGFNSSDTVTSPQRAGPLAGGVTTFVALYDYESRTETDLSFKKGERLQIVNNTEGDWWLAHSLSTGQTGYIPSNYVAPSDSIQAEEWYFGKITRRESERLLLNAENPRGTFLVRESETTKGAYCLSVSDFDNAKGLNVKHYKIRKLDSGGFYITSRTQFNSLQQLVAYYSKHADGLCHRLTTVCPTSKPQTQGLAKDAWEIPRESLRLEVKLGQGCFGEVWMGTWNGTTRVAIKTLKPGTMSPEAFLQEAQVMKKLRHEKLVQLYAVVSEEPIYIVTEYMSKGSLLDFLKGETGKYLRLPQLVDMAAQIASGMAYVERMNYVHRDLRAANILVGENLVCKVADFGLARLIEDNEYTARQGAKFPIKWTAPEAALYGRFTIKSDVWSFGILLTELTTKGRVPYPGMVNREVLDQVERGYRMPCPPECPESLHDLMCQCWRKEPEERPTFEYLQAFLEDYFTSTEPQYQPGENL
Summary of the method: as §2

d-U937 cells = assay: Accumulation of β catenin in d-U937 cells (assay m); assay type: cell-based, human; conditions: percentage relative to Reference Compound at 1 μg/mL
Summary of the method: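 Read-out: colourimetric cell-based immunoassay for endogenous β-catenin (OD450 minus 655 reference), normalised to crystal violet absorbance at 595 nm. Test compound or vehicle was applied for 18 hr to U937 monocytes first differentiated with PMA (100 ng/mL) for 48–72 hr.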

SMILES | pIC50 (Syk) | pIC50 (GSK 3α) | pIC50 [5] | pIC50 (c-Src) | pIC50 (PBMCs [1]) | inhibition at 5 µg/mL (PBMCs [2]) | pIC50 (PBMCs [3]) | pIC50 (PBMCs [4]) | % β-catenin induction (d-U937 cells; test compound 1 μg/mL) | % β-catenin induction (d-U937 cells; test compound 5 μg/mL) | % β-catenin induction (d-U937 cells; test compound 10 μg/mL)
COCCOCCOCCNC(=O)c1cc(Nc2cc(Oc3ccc(NC(=O)Nc4cc(C(C)(C)C)cc(S(C)(=O)=O)c4OC)c4ccccc34)ccn2)cc(OC)c1 [38(ab), 3-((4-((4-(3-(5-(tert-Butyl)-2-methoxy-3-(methylsulfonyl)phenyl)ureido)naphthalen-1-yl)oxy)pyridin-2-yl)amino)-5-methoxy-N-(2-(2-(2-methoxyethoxy)ethoxy)ethyl)benzamide] | < 5.92 | 5.32 | 7.30 | 7.21 | 7.96 | 30.7% | 8.85 | 6.50 |  |  | 
COc1cc(Nc2cc(Oc3ccc(NC(=O)Nc4cc(C(C)(C)C)cc(CC(N)=O)c4OC)c4ccccc34)ccn2)cc(S(=O)(=O)C2CC2)c1 [38(ad), 2-(5-(tert-Butyl)-3-(3-(4-((2-((3-(cyclopropylsulfonyl)-5-methoxyphenyl)amino)pyridin-4-yl)oxy)naphthalen-1-yl)ureido)-2-methoxyphenyl)acetamide] | < 5.86 | 4.96 | 7.06 | 6.81 | 7.96 | 14.5% | 8.66 | 6.67 |  |  | 
COc1cc(C#N)cc(Nc2cc(Oc3ccc(NC(=O)Nc4cc(C(C)(C)C)cc(CC(N)=O)c4OC)c4ccccc34)ccn2)c1 [38(ah), 2-(5-(tert-Butyl)-3-(3-(4-((2-((3-cyano-5-methoxyphenyl)amino)pyridin-4-yl)oxy)naphthalen-1-yl)ureido)-2-methoxyphenyl)acetamide] | < 5.81 | 4.86 | 6.21 | 6.51 | 7.97 | 6.7% | 8.64 | 6.46 |  |  | 
COc1cc(Nc2cc(Oc3ccc(NC(=O)Nc4cc(C(C)(C)C)cc(CC(N)=O)c4OC)c4ccccc34)ccn2)cc(S(=O)(=O)N(C)C)c1 [38(aj), 2-(5-(tert-Butyl)-3-(3-(4-((2-((3-(N,N-dimethylsulfamoyl)-5-methoxyphenyl)amino)pyridin-4-yl)oxy)naphthalen-1-yl)ureido)-2-methoxyphenyl)acetamide] | < 5.86 | < 4.88 | 6.53 | 6.66 | 8.02 | -1% | 8.68 | 6.47 |  |  | 
COc1cc(Nc2cc(Oc3ccc(NC(=O)Nc4cc(C(C)(C)C)cc(P(C)(C)=O)c4OC)c4ccccc34)ccn2)cc(S(=O)(=O)N(C)CCCN2CCOCC2)c1 [79(d), 1-(5-tert-Butyl-3-dimethylphosphoryl-2-methoxy-phenyl)-3-[4-[[2-[3-methoxy-5-[methyl(3-morpholinopropyl)sulfamoyl]anilino]-4-pyridyl]oxy]-1-naphthyl]urea] | < 5.93 | 5.40 | 7.41 | 6.66 | 7.84 | 19.9% | 8.41 | 6.20 |  |  | 
COc1c(NC(=O)Nc2ccc(Oc3ccnc(Nc4cc(C#N)cc(OCCCN5CCOCC5)c4)c3)c3ccccc23)cc(C(C)(C)C)cc1[S+](C)[O-] (centres unmarked) [79(e), 1-(5-tert-Butyl-2-methoxy-3-methylsulfinyl-phenyl)-3-[4-[[2-[3-cyano-5-(3-morpholinopropoxy)anilino]-4-pyridyl]oxy]-1-naphthyl]urea] | < 5.92 |  | 6.57 | 7.09 | 8.16 | 72.4% | 8.39 | 7.28 |  |  | 

Further molecules by rising pIC50 (GSK 3α), results first:

pIC50 (Syk) | pIC50 (GSK 3α) | pIC50 [5] | pIC50 (c-Src) | SMILES | pIC50 (PBMCs [1]) | inhibition at 5 µg/mL (PBMCs [2]) | pIC50 (PBMCs [3]) | pIC50 (PBMCs [4]) | % β-catenin induction (d-U937 cells; test compound 1 μg/mL) | % β-catenin induction (d-U937 cells; test compound 5 μg/mL) | % β-catenin induction (d-U937 cells; test compound 10 μg/mL)
7.00 | 5.44 | 7.32 | 7.62 | COc1cc(Nc2cc(Oc3ccc(NC(=O)Nc4cc(C(C)(C)C)cc(S(C)(=O)=O)c4OC)c4ccccc34)ccn2)cc(C(=O)NCCN2CC[S+]([O-])CC2)c1 [38(an), 3-((4-((4-(3-(5-(tert-Butyl)-2-methoxy-3-(methylsulfonyl)phenyl)ureido)naphthalen-1-yl)oxy)pyridin-2-yl)amino)-5-methoxy-N-(2-(1-oxidothiomorpholino)ethyl)benzamide] | 8.09 | 30.1% | 8.42 | 7.09 |  |  | 
< 5.91 | 5.57 | 7.60 | 7.43 | COCCOCCOCCNC(=O)c1cc(Nc2cc(Oc3ccc(NC(=O)Nc4cc(C(C)(C)C)cc([S+](C)[O-])c4OC)c4ccccc34)ccn2)cc(OC)c1 (centres unmarked) [Example 48, 3-((4-((4-(3-(5-(tert-Butyl)-2-methoxy-3-(methylsulfinyl)phenyl)ureido)naphthalen-1-yl)oxy)pyridin-2-yl)amino)-5-methoxy-N-(2-(2-(2-methoxyethoxy)ethoxy)ethyl)benzamide] | 8.43 | 35.6% | 9.40 | 6.94 |  |  | 
 | 5.62 | 8.05 |  | COc1c(NC(=O)Nc2ccc(Oc3ccnc(NCc4ccccc4)n3)c3ccccc23)cc(C(C)(C)C)cc1P(C)(C)=O [38(g), 1-(4-((2-(Benzylamino)pyrimidin-4-yl)oxy)naphthalen-1-yl)-3-(5-(tert-butyl)-3-(dimethylphosphoryl)-2-methoxyphenyl)urea] | 7.65 | 28.8% | 8.48 | 5.79 | 4.5% | 24.5% | 38.0%
 | 5.64 | 7.55 |  | COc1cc(Nc2cc(Oc3ccc(NC(=O)Nc4cc(C(C)(C)C)cc(CC(N)=O)c4OC)c4ccccc34)ccn2)ccc1C(=O)NCCN1CCOCC1 [Example 70, 4-((4-((4-(3-(3-(2-Amino-2-oxoethyl)-5-(tert-butyl)-2-methoxyphenyl)ureido)naphthalen-1-yl)oxy)pyridin-2-yl)amino)-2-methoxy-N-(2-morpholinoethyl)benzamide] | 7.95 | 62.8% | 8.64 | 7.01 |  |  | 
 | 5.79 | 6.68 |  | COc1cc(Nc2cc(Oc3ccc(NC(=O)Nc4cc(C(C)(C)C)cc(C(=O)NCCN5CCOCC5)c4OC)c4ccccc34)ccn2)cc(C(N)=O)c1 [Example 61, 5-(tert-Butyl)-3-(3-(4-((2-((3-carbamoyl-5-methoxyphenyl)amino)pyridin-4-yl)oxy)naphthalen-1-yl)ureido)-2-methoxy-N-(2-morpholinoethyl)benzamide] | 8.80 | 68.7% | 8.72 | 8.11 |  |  | 
6.41 | 6.06 | 7.68 | 7.82 | COCCOCCOCCNC(=O)c1cc(Nc2cc(Oc3ccc(NC(=O)Nc4cc(C(C)(C)C)cc(CNC(C)=O)c4OC)c4ccccc34)ccn2)cc(OC)c1 [38(y), 3-((4-((4-(3-(3-(Acetamidomethyl)-5-(tert-butyl)-2-methoxyphenyl)ureido)naphthalen-1-yl)oxy)pyridin-2-yl)amino)-5-methoxy-N-(2-(2-(2-methoxyethoxy)ethoxy)ethyl)benzamide] | 8.10 | 65.7% | 9.30 | 7.55 |  |  | 
